As usually defined, the pIC50 is −log10 of the IC50, conventionally taken in molar units. Broadly, the inhibition is the share of the control response that was lost under treatment.

Each structure is given as a SMILES string. pIC50: −log10 of the molar value.

We go through 32 compounds from ChEMBL document CHEMBL2331176, “1,5-Diphenylpenta-2,4-dien-1-ones as potent and selective monoamine oxidase-B inhibitors” (Eur J Med Chem, 2013).

The species entered for one data set is Homo sapiens. The experiment in a line: Selectivity index, ratio of IC50 for recombinant human MAO-A expressed in baculovirus infected BT1-TN-5B1-4 cells to recombinant human MAO-B expressed in baculovirus infected BT1-TN-5B1-4 cells.
Conditions: not given; call rule not given here
In the case of `COc1cc(/C=C/C=C/C(=O)c2c(O)cccc2O)ccc1O`, the Ratio IC50 turned out to be 1.5.
`COc1ccc(/C=C/C=C/C(=O)c2ccccc2O)cc1`: the Ratio IC50 is over 55.
As to `O=C(/C=C/C=C/c1ccccc1)c1ccccc1O`, the Ratio IC50 was over 948.
Same read-out and setting: the result for `O=C(/C=C(O)/C=C/c1ccccc1)c1cc(F)ccc1O` reads over 1980.
On to `O=C(/C=C/C=C/c1ccc(Cl)cc1)c1ccc(O)cc1O`, for which the Ratio IC50 was 1350.
On the same count and under the same terms, the result for `O=C(/C=C(O)/C=C/c1ccccc1)c1ccccc1O` reads over 86; that for `COc1ccc(/C=C/C=C/C(=O)c2cc(F)ccc2O)cc1`, over 138; that for `Cc1ccc(/C=C/C(O)=C/C(=O)c2ccccc2O)cc1`, over 27.
The same measure, in the same setting: the result for `COc1cc(/C=C/C(O)=C/C(=O)c2c(O)cccc2OC)ccc1O` reads 2.2; that for `COc1ccc(/C=C/C=C/C(=O)c2c(O)cccc2O)cc1OC`, 17; that for `O=C(/C=C/c1ccccc1)c1cc(F)ccc1O`, over 150.
Regarding `COc1ccc(C(=O)/C=C/C=C/c2ccc(Cl)cc2)c(O)c1`, the Ratio IC50 is over 22200.
As to `O=C(/C=C/C=C/c1ccc(Cl)cc1)c1cc(Cl)ccc1O`, the Ratio IC50 was over 68.
Still for that read-out and setting: then `O=C(/C=C/C=C/c1ccc(Cl)cc1)c1ccccc1O`, with 44; and `O=C(/C=C/C=C/c1ccc([N+](=O)[O-])cc1)c1ccccc1O`, with over 624.
With `O=C(/C=C/C=C/c1ccccc1)c1cc(F)ccc1O`, the Ratio IC50 is over 1320.
For the compound `O=C(/C=C(O)/C=C/c1ccc(O)c(O)c1)c1ccccc1O`, the Ratio IC50 was determined as 0.66.
For `O=C(/C=C/C=C/c1ccccc1)c1cc(Cl)ccc1O`, the Ratio IC50 was over 1830.
Consider `O=C(/C=C(O)/C=C/c1ccc([N+](=O)[O-])cc1)c1ccccc1O`, for which the Ratio IC50 is over 37.
Still for that read-out and setting: the result for `COc1ccc(/C=C/C=C/C(=O)c2cc(Cl)ccc2O)cc1` reads over 653.
For `COc1ccc(/C=C/C=C/C(=O)c2ccccc2O)cc1OC`, the Ratio IC50 is over 6.8.
On the same count and under the same terms, then `O=C(/C=C/C=C/c1ccc([N+](=O)[O-])cc1)c1cc(Cl)ccc1O`, with over 93; and `COc1cc(/C=C/C=C/C(=O)c2ccccc2O)ccc1O`, with 3.1.
Still for that read-out and setting: the result for `COc1cc(/C=C/C=C/C(=O)c2c(O)cccc2OC)ccc1O` reads 2.1; that for `O=C(/C=C(O)/C=C/c1ccc(O)cc1)c1ccccc1O`, 57.

Another data set addresses T1, Amine oxidase [flavin-containing] B (Homo sapiens, UniProt P27338).
T1 sequence (P27338 whole entry): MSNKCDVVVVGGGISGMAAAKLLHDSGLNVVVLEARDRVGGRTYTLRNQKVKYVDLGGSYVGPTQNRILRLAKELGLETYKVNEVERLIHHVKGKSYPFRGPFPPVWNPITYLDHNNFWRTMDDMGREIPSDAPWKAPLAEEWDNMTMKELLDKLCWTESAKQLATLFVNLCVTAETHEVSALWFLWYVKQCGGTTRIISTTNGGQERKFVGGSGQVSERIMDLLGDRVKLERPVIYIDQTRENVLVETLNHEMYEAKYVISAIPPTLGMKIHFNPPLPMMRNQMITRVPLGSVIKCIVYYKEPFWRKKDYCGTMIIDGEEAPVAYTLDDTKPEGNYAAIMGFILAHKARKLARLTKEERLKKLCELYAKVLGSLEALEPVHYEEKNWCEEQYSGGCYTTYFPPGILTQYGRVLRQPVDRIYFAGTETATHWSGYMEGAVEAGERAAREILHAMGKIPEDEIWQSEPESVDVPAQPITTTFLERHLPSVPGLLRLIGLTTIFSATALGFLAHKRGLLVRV
The experiment in a line: Inhibition of recombinant human MAO-B expressed in baculovirus infected BT1-TN-5B1-4 cells assessed as inhibition of production of hydrogen peroxide from p-tyramine at 1 mM after 15 mins by Amplex Red assay. To be noted: 0.25 h, 1000 µM.
Turning to `O=C(NCCN1CCOCC1)c1ccc(Cl)cc1` [MOCLOBEMIDE], the “inhibition (INH)” value was “Not Active”.

A further data set addresses T1, Amine oxidase [flavin-containing] B. Nature of the data set: biochemical. The format is cell-based.
Conditions: not given
On to `COc1cc(/C=C/C=C/C(=O)c2c(O)cccc2O)ccc1O`, for which the negative-log IC50 (pIC50) was 6.01.
The same measure, in the same setting: the result for `COc1ccc(/C=C/C=C/C(=O)c2ccccc2O)cc1` reads 5.74.
In turn, `O=C(/C=C/C=C/c1ccccc1)c1ccccc1O` had a pIC50 of 6.98.
As for `O=C(/C=C(O)/C=C/c1ccccc1)c1cc(F)ccc1O`, the pIC50 is 7.30.
In turn, `O=C(/C=C/C=C/c1ccc(Cl)cc1)c1ccc(O)cc1O` had a pIC50 of 7.95.
In turn, `O=C(/C=C(O)/C=C/c1ccccc1)c1ccccc1O` had a pIC50 of 5.94.
The same measure, in the same setting: the result for `COc1ccc(/C=C/C=C/C(=O)c2cc(F)ccc2O)cc1` reads 6.14; that for `Cc1ccc(/C=C/C(O)=C/C(=O)c2ccccc2O)cc1`, 5.42.
For `COc1cc(/C=C/C(O)=C/C(=O)c2c(O)cccc2OC)ccc1O`, the pIC50 is 5.77.
Turning to `COc1ccc(/C=C/C=C/C(=O)c2c(O)cccc2O)cc1OC`, the pIC50 was 5.84.
`O=C(/C=C/c1ccccc1)c1cc(F)ccc1O` gave a pIC50 of 6.18.
Still for that read-out and setting: the result for `COc1ccc(C(=O)/C=C/C=C/c2ccc(Cl)cc2)c(O)c1` reads 8.35.
The same measure, in the same setting: the result for `O=C(/C=C/C=C/c1ccc(Cl)cc1)c1cc(Cl)ccc1O` reads 5.84; that for `O=C(/C=C/C=C/c1ccc(Cl)cc1)c1ccccc1O`, 6.07.
On the same count and under the same terms, the result for `O=C(/C=C/C=C/c1ccc([N+](=O)[O-])cc1)c1ccccc1O` reads 6.80; that for `O=C(/C=C/C=C/c1ccccc1)c1cc(F)ccc1O`, 7.12.
`O=C(/C=C(O)/C=C/c1ccc(O)c(O)c1)c1ccccc1O` gave a pIC50 of 6.18.
Same read-out and setting: the result for `O=C(/C=C/C=C/c1ccccc1)c1cc(Cl)ccc1O` reads 7.26; that for `O=C(/C=C(O)/C=C/c1ccc([N+](=O)[O-])cc1)c1ccccc1O`, 5.57.
For `COc1ccc(/C=C/C=C/C(=O)c2cc(Cl)ccc2O)cc1`, the pIC50 is 6.81.
Turning to `COc1ccc(/C=C/C=C/C(=O)c2ccccc2O)cc1OC`, the pIC50 was 4.84.
For the compound `O=C(/C=C/C=C/c1ccc([N+](=O)[O-])cc1)c1cc(Cl)ccc1O`, the negative logarithm of the IC50 (pIC50) is 5.97.
`COc1cc(/C=C/C=C/C(=O)c2ccccc2O)ccc1O` showed a negative-log IC50 (pIC50) of 6.30.
Compound `COc1cc(/C=C/C=C/C(=O)c2c(O)cccc2OC)ccc1O` had a pIC50 of 6.31.
In the case of `O=C(/C=C(O)/C=C/c1ccc(O)cc1)c1ccccc1O`, the negative logarithm of the IC50 (pIC50) is 7.58.

The target in the next data set is T2, Amine oxidase [flavin-containing] A (Homo sapiens, UniProt P21397).
T2 sequence (P21397 whole entry): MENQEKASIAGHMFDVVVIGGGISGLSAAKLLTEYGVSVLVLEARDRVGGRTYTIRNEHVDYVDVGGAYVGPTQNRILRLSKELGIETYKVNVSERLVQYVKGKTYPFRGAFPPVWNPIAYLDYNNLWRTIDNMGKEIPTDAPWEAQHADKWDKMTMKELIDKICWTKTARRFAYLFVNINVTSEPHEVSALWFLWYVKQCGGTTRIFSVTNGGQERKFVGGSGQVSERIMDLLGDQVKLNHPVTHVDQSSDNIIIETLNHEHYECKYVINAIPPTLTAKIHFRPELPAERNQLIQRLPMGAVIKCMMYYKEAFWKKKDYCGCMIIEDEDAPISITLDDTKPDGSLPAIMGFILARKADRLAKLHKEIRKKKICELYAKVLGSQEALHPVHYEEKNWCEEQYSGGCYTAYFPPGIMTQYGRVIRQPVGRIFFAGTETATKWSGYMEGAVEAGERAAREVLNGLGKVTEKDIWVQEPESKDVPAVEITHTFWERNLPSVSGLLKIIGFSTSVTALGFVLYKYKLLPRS
Nature of the data set: Inhibition of recombinant human MAO-A expressed in baculovirus infected BT1-TN-5B1-4 cells assessed as inhibition of production of hydrogen peroxide from p-tyramine after 15 mins by Amplex Red assay.
Conditions: not given
Regarding `COc1cc(/C=C/C=C/C(=O)c2c(O)cccc2O)ccc1O`, the pIC50 is 5.84.
`O=C(/C=C/C=C/c1ccc(Cl)cc1)c1ccc(O)cc1O`: the pIC50 is 4.81.
On to `COc1cc(/C=C/C(O)=C/C(=O)c2c(O)cccc2OC)ccc1O`, for which the pIC50 was 5.42.
Consider `COc1ccc(/C=C/C=C/C(=O)c2c(O)cccc2O)cc1OC`, for which the pIC50 is 4.60.
On to `O=C(/C=C/C=C/c1ccc(Cl)cc1)c1ccccc1O`, for which the negative-log IC50 (pIC50) was 4.42.
The same measure, in the same setting: then `O=C(/C=C(O)/C=C/c1ccc(O)c(O)c1)c1ccccc1O`, with 6.37; and `COc1cc(/C=C/C=C/C(=O)c2ccccc2O)ccc1O`, with 5.81.
For `COc1cc(/C=C/C=C/C(=O)c2c(O)cccc2OC)ccc1O`, the pIC50 is 5.99.
Regarding `O=C(/C=C(O)/C=C/c1ccc(O)cc1)c1ccccc1O`, the pIC50 is 5.82.

Another data set deals with T1, Amine oxidase [flavin-containing] B. The experiment in a line: Inhibition of recombinant human MAO-B expressed in baculovirus infected BT1-TN-5B1-4 cells assessed as inhibition of production of hydrogen peroxide from p-tyramine at 100 uM after 15 mins by Amplex Red assay. Conditions: 0.25 h.
Turning to `O=C(/C=C(O)/C=C/c1ccc(Cl)cc1)c1ccccc1O`, the inhibition at 100 µM amounted to 40%.
Same read-out and setting: the result for `COc1ccc(/C=C/C(O)=C/C(=O)c2ccccc2O)cc1` reads 40%.

The data set is the same for the next values; noted with them: 0.25 h, 100 µM.
As for `COc1ccc(/C=C/C(O)=C/C(=O)c2ccccc2O)cc1OC`, the “inhibition (INH)” value is “Not Active”.
Still for that read-out and setting: then `O=C(/C=C(O)/C=C/c1ccc(Cl)cc1)c1cc(Cl)ccc1O`, with “Not Active”; and `COc1ccc(/C=C/C=C/C(=O)c2c(O)cccc2OC)cc1OC`, with “Not Active”; and `COc1ccc(/C=C/C(O)=C/C(=O)c2c(O)cccc2OC)cc1OC`, with “Not Active”.

In a further data set the target is T2, Amine oxidase [flavin-containing] A. Nature of the data set: Inhibition of recombinant human MAO-A expressed in baculovirus infected BT1-TN-5B1-4 cells assessed as inhibition of production of hydrogen peroxide from p-tyramine at 100 uM after 15 mins by Amplex Red assay. Conditions: 0.25 h.
Regarding `COc1ccc(/C=C/C=C/C(=O)c2ccccc2O)cc1`, the inhibition at 100 µM is 40%.
Still for that read-out and setting: the result for `O=C(/C=C/c1ccccc1)c1cc(F)ccc1O` reads 40%; that for `COc1ccc(/C=C/C=C/C(=O)c2c(O)cccc2OC)cc1OC`, 40%.
Turning to `COc1ccc(/C=C/C=C/C(=O)c2ccccc2O)cc1OC`, the inhibition at 100 µM worked out at 40%.
As for `COc1ccc(/C=C/C(O)=C/C(=O)c2c(O)cccc2OC)cc1OC`, the inhibition at 100 µM was determined as 40%.

The same data set, now with this note: 0.25 h, 100 µM.
Consider `COc1ccc(/C=C/C(O)=C/C(=O)c2ccccc2O)cc1OC`, for which the “inhibition (INH)” value was “Not Active”.
`O=C(/C=C/C=C/c1ccccc1)c1ccccc1O`: the “inhibition (INH)” value was “Not Active”.
Same read-out and setting: the result for `O=C(/C=C(O)/C=C/c1ccccc1)c1cc(F)ccc1O` reads “Not Active”; that for `O=C(/C=C(O)/C=C/c1ccccc1)c1ccccc1O`, “Not Active”; that for `COc1ccc(/C=C/C=C/C(=O)c2cc(F)ccc2O)cc1`, “Not Active”.
`Cc1ccc(/C=C/C(O)=C/C(=O)c2ccccc2O)cc1`: the “inhibition (INH)” value is “Not Active”.
The same measure, in the same setting: then `O=C(/C=C(O)/C=C/c1ccc(Cl)cc1)c1cc(Cl)ccc1O`, with “Not Active”; and `COc1ccc(C(=O)/C=C/C=C/c2ccc(Cl)cc2)c(O)c1`, with “Not Active”.
In the case of `O=C(/C=C/C=C/c1ccc(Cl)cc1)c1cc(Cl)ccc1O`, the “inhibition (INH)” value was “Not Active”.
For the compound `O=C(/C=C/C=C/c1ccc([N+](=O)[O-])cc1)c1ccccc1O`, the “inhibition (INH)” value was “Not Active”.
Same read-out and setting: then `O=C(/C=C/C=C/c1ccccc1)c1cc(F)ccc1O`, with “Not Active”; and `O=C(/C=C/C=C/c1ccccc1)c1cc(Cl)ccc1O`, with “Not Active”; and `O=C(/C=C(O)/C=C/c1ccc(Cl)cc1)c1ccccc1O`, with “Not Active”.
`O=C(/C=C(O)/C=C/c1ccc([N+](=O)[O-])cc1)c1ccccc1O`: the “inhibition (INH)” value is given as “Not Active”.
Still for that read-out and setting: the result for `COc1ccc(/C=C/C=C/C(=O)c2cc(Cl)ccc2O)cc1` reads “Not Active”.
Still for that read-out and setting: then `COc1ccc(/C=C/C(O)=C/C(=O)c2ccccc2O)cc1`, with “Not Active”; and `O=C(/C=C/C=C/c1ccc([N+](=O)[O-])cc1)c1cc(Cl)ccc1O`, with “Not Active”.
